Assay [1] is described as follows: ABTS method, free radical scavenging. Particulars: 25° C., 5 min reaction, 730 nm; read-out: IC50 for scavenging ABTS^+. free radicals. The class given is biochemical. The procedure: (§1) The free radical scavenging capability of the Ame and the Ame-Cu complex were studied by pyrogallol auto-oxidation method and ABTS method with the following steps:
Determination of ABTS^+. free radical ion scavenging capability of the blank sample: at 25° C., 2.9 mL ABTS^+. free radical ion working solution was added into a 10 mL sample tube, 100 μL DMSO was added, after reacting for 5 min, the UV-vis spectrum was measured, and the absorption intensity A0 at 730 nm was recorded.
Determination of […]. free radical ion scavenging capability of the samples: at 25° C., 2.9 mL ABTS^+. free radical ion working solution was added into a 10 mL sample tube, 100 μL samples of different concentrations that were dissolved in DMSO were added, after reacting for 5 min, the UV-vis spectrum was measured, and the absorption intensity A1 at 730 nm was recorded, and the ABTS^+. free radical ion scavenging rate was calculated according to Formula 4. SR(%)=(1−A1/A0)×100% (Formula 4)
The ABTS^+. free radical scavenging capabilities of the Ame and the Ame-Cu complex are concentration dependent. Within a certain range, the scavenging rate is linear with the concentration. The curve of the scavenging rate and the concentration (c) is plotted in the present invention to obtain a corresponding linear equation, and the maximum half-inhibitory concentration (IC50 value) is calculated.

The nature of assay [2]: Pyrogallol auto-oxidation method, free radical scavenging. The class given is biochemical. Conditions: Tris-HCl pH 8.20, 25° C., 322 nm, read-out: IC50 to scavenge O2^−. free radical. As to the method: as §1
(1) Pyrogallol Auto-Oxidation Method
Determination of auto-oxidation rate V0 of pyrogallol: 2 mL Tris-HCl buffer (pH=8.20) was added to a 10 mL sample tube at 25° C., 100 μL DMSO was added as a control, after adding 0.8 mL distilled water, 0.2 mL pyrogallol solution having a concentration of 2 mmol·L^−1 was added, the mixture was poured into a cuvette after mixing uniformly, the absorbance at 322 nm was measured with pure water as a blank, the A value was recorded every 10 s for a total of 4 min, linear regression was performed with t as the abscissa, and A as the ordinate, straight line slope thereof is V0, and the measurement was performed for three times to obtain an average value. […]

In another assay the test system is herring sperm DNA (fDNA). The assay is described as follows: Interaction with fDNA by UV-vis spectroscopy, fluorescence spectroscopy and viscosity method. The class given is binding. Conditions: UV-vis, fluorescence (fDNA-EB system), viscosity. An excerpt: UV-vis spectroscopy, fluorescence spectroscopy and viscosity method are used to study the interaction between the Ame and herring sperm DNA (fDNA), and the interaction between the Ame-Cu complex and herring sperm DNA (fDNA), to further reveal the mechanism of antitumor activity, the obtained spectra are shown in FIGS. 7-11. […] Thereby, it can be speculated that the mechanism of antitumor activity of the Ame and its complex may be that Ame or the complex thereof enters the interior of the cell and intercalates with the DNA strand to cause apoptosis. Since the interaction of the complex with DNA is stronger than of the Ame, the antitumor activity thereof is also stronger than of the Ame.

pIC50: −log10 of the molar value.

This note sets out measurements from US10815252B2, “Biflavone-copper complex, preparation method and application thereof” (NANJING FORESTRY UNIVERSITY, priority 2017, dated 2020).

In the case of `O=c1cc(-c2ccc(O)c(-c3c(O)cc(O)c4c(=O)cc(-c5ccc(O)cc5)oc34)c2)oc2cc(O)cc(O)c12` [Ame, amentoflavone], the negative-log IC50 (pIC50) in assay [1] is 4.68; in assay [2] it was 4.63. The “manner of interaction with fDNA” value in the assay on herring sperm DNA (fDNA) was “intercalation manner”.

In the case of `CS(C)=[O+][Cu-4]1([O+]=S(C)C)[O+]=C2C=C(c3ccc(O)cc3)Oc3c2c(cc(O)c3-c2cc(-c3cc(=O)c4c(O)cc(O)cc4o3)ccc2O)[OH+]1` [Ame-Cu complex], the pIC50 was 5.20 in assay [1] and 5.34 in assay [2]. In addition, the “manner of interaction with fDNA” value in the assay on herring sperm DNA (fDNA) is given as “intercalation manner”.
